# Source: patent publication US20230123334A1, “AMINO LIPID COMPOUND, PREPARATION METHOD THEREFOR, AND APPLICATION THEREOF” (SHENZHEN SHENXIN BIOTECHNOLOGY CO., LTD., priority 2020, published 2023)
# System: HEK293 cells
# Experiment: Preliminary screening as DNA vectors, GFP transfection of HEK293 cells
# Type: cell-based
# Conditions: HEK293 cells; lipid/DOPE liposome with 75 ng plasmid DNA (psin-EGFP-IRES-Puro); number of cells expressing GFP divided by total number of nuclei (Hoechst)
# Procedure: Cell line: HEK293 cells (ATCC CRL-1573™)
# Medium: DMEM supplemented with 10% fetal bovine serum (Invitrogen)
# Mode of screening: cell transfection on 96-well plates
# Detection (readout): percentage of the number of GFP fluorescent cells relative to the total number of cells (the total number of cells was measured using nucleus dye Hoechst—see FIG. 2). Lipofectamine2000 (Invitrogen) was used as positive control, according to the manufacturer's instructions.
# Method: an 8-channel pipette was used for sample addition. The contents shown were for a single well of a 96-well flat plate.
# 1. The compound (0.01 mmol) prepared in Example 1 was dissolved in 1 mL of anhydrous ethanol. After ultrasonically dissolved, 10 μL of the resultant amino lipid solution in ethanol was taken and mixed with 5 μL of DOPE solution in ethanol (0.01 m), and then to the obtained mixture was added 35 μL of 0.2M sodium acetate buffer (pH 5.6), and 50 μL of liposome solution was prepared by vortex at a constant rotating speed for 30 s. 4 μL was taken from the 50 μL liposome solution and added to 46 μL of 0.02M sodium acetate buffer (pH 5.6), and the final liposome solution was formed by vortex at a constant rotating speed for 30 s. 5 μL was taken from the final liposome solution and mixed with 75 ng plasmid DNA (psin-EGFP-IRES-Puro, Clontech) dissolved in 5 μL of 0.02 M sodium acetate buffer, and was allowed to stay at room temperature for 30 min to form a lipid/DNA transfection complex.
# 2. 10 μL of the lipid/DNA transfection complex was incubated at room temperature for 30 min, followed by addition of 90 μL of fresh resuspended cells (3-5×10^4 cells) and mixing with a pipette. 100 μL of cells+lipid/DNA complex was transferred to separate wells of a 96-well culture plate immediately, and placed in an incubator containing 5% CO2 at 37° C.
# 3. Hoechst33258 (Invitrogen) was added at a final concentration of 0.2 μg/mL to the cells 20 to 24 hours after initial cell transfection, and cultured in darkness at 37° C. for 15 min. Afterwards, the cells were washed once with a PBS solution, and then added with medium for culture for 20 to 24 h.
# 4. The cells were placed in a high-throughput confocal microscope (Molecular Devices ImageXpress), and four visual fields of the image of the cells were captured for each well, and images at three laser wavelengths were captured for each sample: bright field images of cells (FIG. 2(a) and FIG. 2(b)), Hoechst-staining images showing total nuclei (FIG. 2(c) and FIG. 2(d)) and GFP images showing success in transfection with the plasmid DNA and the expression of GFP (FIG. 2(e) and FIG. 2(f)). MetaXpress software was used to separately count the cells in the Hoechst-staining images and GFP images, and then the number of cells expressing GFP was divided by the total number of nuclei to give the absolute cell transfection efficiency. The absolute transfection efficiency was calculated as follows: […]
row,SMILES,Absolute DNA transfection efficiency in HEK293 cells
1,CCCCCCCCCCCCN(CCCCCCCCCCCC)c1nc(NCCCCCCCCCCC)nc(NCCN(C)C)n1 [Compound N112N12D1],0.7%
2,CCCCCCCCCCCCN(CCCCCCCCCCCC)c1nc(NCCCCCCCCCCC)nc(NCCN2CCOCC2)n1 [Compound N112N12D2],0.0%
3,CCCCCCCCCCCCN(CCCCCCCCCCCC)c1nc(NCCCCCCCCCCC)nc(NCCN(CC)CC)n1 [Compound N112N12D7],0.4%
4,CCCCCCCCCCCCN(CCCCCCCCCCCC)c1nc(NCCCCCCCCCCC)nc(NCCCN2CCOCC2)n1 [Compound N112N12D8],0.0%
5,CCCCCCCCCCCCN(CCCCCCCCCCCC)c1nc(NCCCCCCCCCCC)nc(NCCCN2CCN(C)CC2)n1 [Compound N112N12D9],0.1%
6,CCCCCCCCCCCCN(CCCCCCCCCCCC)c1nc(NCCCCCCCCCCC)nc(NCC2CCN(C)CC2)n1 [Compound N112N12D10],0.7%

# Same assay, conditions: amino lipid/DOPE liposome with 75 ng plasmid DNA (psin-EGFP-IRES-Puro); number of GFP-expressing cells divided by total nuclei (Hoechst)
row,SMILES,Absolute DNA transfection efficiency in HEK293 cells
1,CCCCCCNc1nc(NCCN(C)C)nc(SCCCCCC)n1 [S6N6 D1],0.1%
2,CCCCCCNc1nc(NCCN2CCOCC2)nc(SCCCCCC)n1 [S6N6 D2],0.0%
3,CCCCCCNc1nc(NCCN2CCCC2)nc(SCCCCCC)n1 [S6N6 D3],0.0%
4,CCCCCCNc1nc(NCCN2CCCCC2)nc(SCCCCCC)n1 [S6N6 D4],0.0%
5,CCCCCCNc1nc(NCCN2CCN(C)CC2)nc(SCCCCCC)n1 [S6N6 D5],0.0%
6,CCCCCCNc1nc(NCCCN(C)C)nc(SCCCCCC)n1 [S6N6 D6],0.0%
7,CCCCCCNc1nc(NCCN(CC)CC)nc(SCCCCCC)n1 [S6N6 D7],0.0%
8,CCCCCCNc1nc(NCCCN2CCOCC2)nc(SCCCCCC)n1 [S6N6 D8],0.0%
9,CCCCCCNc1nc(NCCCN2CCN(C)CC2)nc(SCCCCCC)n1 [S6N6 D9],0.0%
10,CCCCCCNc1nc(NCC2CCN(C)CC2)nc(SCCCCCC)n1 [S6N6 D10],0.0%
11,CCCCCCCNc1nc(NCCN(C)C)nc(SCCCCCC)n1 [S6N7 D1],0.1%
12,CCCCCCCNc1nc(NCCN2CCOCC2)nc(SCCCCCC)n1 [S6N7 D2],0.0%
13,CCCCCCCNc1nc(NCCN2CCCC2)nc(SCCCCCC)n1 [S6N7 D3],0.0%
14,CCCCCCCNc1nc(NCCN2CCCCC2)nc(SCCCCCC)n1 [S6N7 D4],1.1%
15,CCCCCCCNc1nc(NCCN2CCN(C)CC2)nc(SCCCCCC)n1 [S6N7 D5],3.7%
16,CCCCCCCNc1nc(NCCCN(C)C)nc(SCCCCCC)n1 [S6N7 D6],0.4%
17,CCCCCCCNc1nc(NCCCN2CCOCC2)nc(SCCCCCC)n1 [S6N7 D8],0.0%
18,CCCCCCCNc1nc(NCCCN2CCN(C)CC2)nc(SCCCCCC)n1 [S6N7 D9],0.2%
19,CCCCCCCNc1nc(NCC2CCN(C)CC2)nc(SCCCCCC)n1 [S6N7 D10],2.9%

row,SMILES,Absolute DNA transfection efficiency in HEK293 cells
1,CCCCCCCCNc1nc(NCCN(C)C)nc(SCCCCCC)n1 [S6N8 D1],0.2%
2,CCCCCCCCNc1nc(NCCN2CCOCC2)nc(SCCCCCC)n1 [S6N8 D2],0.3%
3,CCCCCCCCNc1nc(NCCN2CCCC2)nc(SCCCCCC)n1 [S6N8 D3],2.0%
4,CCCCCCCCNc1nc(NCCN2CCCCC2)nc(SCCCCCC)n1 [S6N8 D4],1.7%
5,CCCCCCCCNc1nc(NCCN2CCN(C)CC2)nc(SCCCCCC)n1 [S6N8 D5],3.4%
6,CCCCCCCCNc1nc(NCCCN(C)C)nc(SCCCCCC)n1 [S6N8 D6],0.6%
7,CCCCCCCCNc1nc(NCCN(CC)CC)nc(SCCCCCC)n1 [S6N8 D7],0.9%
8,CCCCCCCCNc1nc(NCCCN2CCOCC2)nc(SCCCCCC)n1 [S6N8 D8],0.0%
9,CCCCCCCCNc1nc(NCCCN2CCN(C)CC2)nc(SCCCCCC)n1 [S6N8 D9],1.2%
10,CCCCCCCCNc1nc(NCC2CCN(C)CC2)nc(SCCCCCC)n1 [S6N8 D10],0.4%
11,CCCCCCCCCNc1nc(NCCN(C)C)nc(SCCCCCC)n1 [S6N9 D1],0.1%
12,CCCCCCCCCNc1nc(NCCN2CCOCC2)nc(SCCCCCC)n1 [S6N9 D2],0.2%
13,CCCCCCCCCNc1nc(NCCN2CCCC2)nc(SCCCCCC)n1 [S6N9 D3],0.4%
14,CCCCCCCCCNc1nc(NCCN2CCCCC2)nc(SCCCCCC)n1 [S6N9 D4],0.4%
15,CCCCCCCCCNc1nc(NCCN2CCN(C)CC2)nc(SCCCCCC)n1 [S6N9 D5],7.9%
16,CCCCCCCCCNc1nc(NCCCN(C)C)nc(SCCCCCC)n1 [S6N9 D6],1.5%
17,CCCCCCCCCNc1nc(NCCN(CC)CC)nc(SCCCCCC)n1 [S6N9 D7],1.1%
18,CCCCCCCCCNc1nc(NCCCN2CCOCC2)nc(SCCCCCC)n1 [S6N9 D8],0.0%
19,CCCCCCCCCNc1nc(NCCCN2CCN(C)CC2)nc(SCCCCCC)n1 [S6N9 D9],0.8%

row,SMILES,Absolute DNA transfection efficiency in HEK293 cells
1,CCCCCCCCCNc1nc(NCC2CCN(C)CC2)nc(SCCCCCC)n1 [S6N9 D10],4.3%
2,CCCCCCCCCCCNc1nc(NCCN(C)C)nc(SCCCCCC)n1 [S6N11 D1],1.5%
3,CCCCCCCCCCCNc1nc(NCCN2CCOCC2)nc(SCCCCCC)n1 [S6N11 D2],0.2%
4,CCCCCCCCCCCNc1nc(NCCN2CCCC2)nc(SCCCCCC)n1 [S6N11 D3],2.8%
5,CCCCCCCCCCCNc1nc(NCCN2CCCCC2)nc(SCCCCCC)n1 [S6N11 D4],3.3%
6,CCCCCCCCCCCNc1nc(NCCN2CCN(C)CC2)nc(SCCCCCC)n1 [S6N11 D5],17.5%
7,CCCCCCCCCCCNc1nc(NCCCN(C)C)nc(SCCCCCC)n1 [S6N11 D6],1.9%
8,CCCCCCCCCCCNc1nc(NCCN(CC)CC)nc(SCCCCCC)n1 [S6N11 D7],2.2%
9,CCCCCCCCCCCNc1nc(NCCCN2CCOCC2)nc(SCCCCCC)n1 [S6N11 D8],1.5%
10,CCCCCCCCCCCNc1nc(NCCCN2CCN(C)CC2)nc(SCCCCCC)n1 [S6N11 D9],21.1%
11,CCCCCCCCCCCNc1nc(NCC2CCN(C)CC2)nc(SCCCCCC)n1 [S6N11 D10],7.9%
12,CCCCCCCCCCCCNc1nc(NCCN(C)C)nc(SCCCCCC)n1 [S6N12 D1],4.7%
13,CCCCCCCCCCCCNc1nc(NCCN2CCOCC2)nc(SCCCCCC)n1 [S6N12 D2],0.9%
14,CCCCCCCCCCCCNc1nc(NCCN2CCCC2)nc(SCCCCCC)n1 [S6N12 D3],6.2%
15,CCCCCCCCCCCCNc1nc(NCCN2CCCCC2)nc(SCCCCCC)n1 [S6N12 D4],2.0%
16,CCCCCCCCCCCCNc1nc(NCCN2CCN(C)CC2)nc(SCCCCCC)n1 [S6N12 D5],25.9%
17,CCCCCCCCCCCCNc1nc(NCCCN(C)C)nc(SCCCCCC)n1 [S6N12 D6],6.0%
18,CCCCCCCCCCCCNc1nc(NCCN(CC)CC)nc(SCCCCCC)n1 [S6N12 D7],2.2%
19,CCCCCCCCCCCCNc1nc(NCCCN2CCOCC2)nc(SCCCCCC)n1 [S6N12 D8],4.0%
